Article PMC8809408 (Frontiers in Pharmacology, 2022)
Entries after “also recorded” stand apart in the source; their conditions may differ. Where two headings read alike, the source gives them in different places.

Experiments:
in vitro = details: human
TMPRSS2 [1] = format: cell-based, human
ACE2 [2] = format: cell-based, human
[3] = tested on: HEK293T-ACE2-TMPRSS2 cells
SARS-CoV-2 (B.1) = format: cell-based
Sigma-1 receptor (S1R) = details: cited from earlier work
Zaire Ebola virus (EBOV) = details: cited from earlier work
COVID-19 [4] = details: COVID-19 patients, treatment for 20 days ref Hoertel, et al., 2021b; cited from earlier work
[5] = tested on: SARS-CoV-2 B.1.351 (beta); format: cell-based
[6] = samples collected from pilot fatalities ref Johnson et al., 2007; cited from earlier work
[7] = tested on: SARS-CoV-2 B.1.617.2 (delta); format: cell-based
TMPRSS2 [8] = format: cell-based, human; remark: listed apart in the source
ACE2 [9] = format: cell-based, human; remark: listed apart in the source
[10] = tested on: SARS-CoV-2 B.1.1.7 (alpha); format: cell-based
COVID-19 [11] = details: follow up randomized controlled trial ref Reis et al., 2021; cited from earlier work
S2R = details: ref Robson et al., 2012; cited from earlier work
[12] = ref Narita et al., 1996, Sukhatme et al., 2021

Compound	CC50 (in vitro)	viability of infected Calu-1 cells (ATP level) (Calu-1 cells)	cell viability (ATP level) in non-infected and infected cells [3]	binding to S1R (Sigma-1 receptor (S1R); [12])	genome copies of SARS-CoV-2 (qRT-PCR) (SARS-CoV-2 (B.1))	infectious virus particles (TCID50 assay) (SARS-CoV-2 (B.1))	also measured
CN(C)CCCN1c2ccccc2Sc2ccc(Cl)cc21 [Chlorpromazine]	15.9 µM	slight but significant reduction in the viability	Reduction				TMPRSS2 mRNA level (TMPRSS2 [1]): remained ineffective; ACE2 mRNA level (ACE2 [2]): induced a reduction of this target; amount of infectious virus (TCID50 assay) (SARS-CoV-2 (B.1)): failed to observe diminished amount of infectious virus; total amount of virus / genome copy number (qRT-PCR) (SARS-CoV-2 (B.1)): able to reduce the total amount of virus
CN(C)CCCC1(c2ccc(F)cc2)OCc2cc(C#N)ccc21 (stereo not shown) [Citalopram]	274 µM	decreased the cell viability	Reduction	bind to S1R	clearly reduced	clearly reduced	
CN(C)CCCN1c2ccccc2CCc2ccc(Cl)cc21 [Clomipramine]	65.7 µM	decreased the cell viability	Reduction		clearly reduced	clearly reduced	Zaire Ebola virus (EBOV) entry to target cells (Zaire Ebola virus (EBOV)): reduce the Zaire Ebola virus (EBOV) entry; TMPRSS2 mRNA level (TMPRSS2 [1]): remained ineffective; ACE2 mRNA level (ACE2 [2]): induced a reduction of this target
CNCCCN1c2ccccc2CCc2ccccc21 [Desipramine]	68.9 µM		Reduction	bind to S1R			
CNCCC(Oc1ccc(C(F)(F)F)cc1)c1ccccc1 (stereo not shown) [Fluoxetine]	41.5 µM	decreased the cell viability	Reduction	bind to S1R	clearly reduced	clearly reduced	risk of intubation or death by COVID-19 (COVID-19 [4]): reduce the risk of intubation or death; TCID50 (infectious virus) [5]: reduced; genome copy number (qRT-PCR) [5]: reduced; mean concentration of fluoxetine in lungs [6]: 19.6 µg/g; TCID50 (infectious virus) [7]: reduced; genome copy number (qRT-PCR) [7]: reduced; TMPRSS2 protein level (TMPRSS2 [8]): significantly increased; also recorded: Despite not being statistically significant, fluoxetine also increased TMPRSS2; ACE2 protein level (ACE2 [9]): does not exert any effect on the ACE2 expression; TMPRSS2 mRNA level (TMPRSS2 [1]): increased; TCID50 (infectious virus) [10]: reduced; genome copy number (qRT-PCR) [10]: reduced; Calu-1 viability (ATP levels) (Calu-1 cells; human): slightly reduced the Calu-1 viability; ACE2 mRNA level (ACE2 [2]): remained unaltered
OCCN1CCN(CCC=C2c3ccccc3Sc3ccc(C(F)(F)F)cc32)CC1 [Flupenthixol]	19.4 µM		Reduction				
COCCCC/C(=N\OCCN)c1ccc(C(F)(F)F)cc1 [Fluvoxamine]	75.3 µM		Reduction	bind to S1R			hospitalization risk due to COVID-19 (COVID-19 [11]): helps with the reduction of hospitalization risk
CN(C)CCCN1c2ccccc2CCc2ccccc21 [Imipramine]	68.6 µM	All compounds, except for imipramine, decreased the cell viability	Reduction	bind to S1R	reducing the genome copies	failed to effect the TCID50	cell viability (ATP level) [3]: reduced ATP levels
CNC1(c2ccccc2Cl)CCCCC1=O (stereo not shown) [Ketamine]							binding to S2R (S2R): can bind to both S1R and S2R; binding to S1R (Sigma-1 receptor (S1R); ref Robson et al., 2012): can bind to both S1R and S2R
Fc1ccc([C@@H]2CCNC[C@H]2COc2ccc3c(c2)OCO3)cc1 [Paroxetine]	22.1 µM		Reduction	bind to S1R			Zaire Ebola virus (EBOV) entry to target cells (Zaire Ebola virus (EBOV)): reduce the Zaire Ebola virus (EBOV) entry
O=c1[nH]c2ccccc2n1C1CCN(CCCC(c2ccc(F)cc2)c2ccc(F)cc2)CC1 [Pimozide]	15 µM		Reduction				
CCOc1ccccc1OC(c1ccccc1)C1CNCCO1 (stereo not shown) [Reboxetine]					clearly reduced	clearly reduced	
COc1ccc(C(CN(C)C)C2(O)CCCCC2)cc1 (stereo not shown) [Venlafaxine]		decreased the cell viability			ineffective	ineffective	risk of intubation or death by COVID-19 (COVID-19 [4]): reduce the risk of intubation or death; affinity to S1R (Sigma-1 receptor (S1R); ref Ishima et al., 2014): very weak affinity; CC50 [3]: No fitting; cell viability (ATP level) [3]: all the compounds, except (E) venlafaxine and (F) reboxetine reduced ATP levels
CN(C)CCC[C@@]1(c2ccc(F)cc2)OCc2cc(C#N)ccc21 [escitalopram]							risk of intubation or death by COVID-19 (COVID-19 [4]): reduce the risk of intubation or death
CN[C@H]1CC[C@@H](c2ccc(Cl)c(Cl)c2)c2ccccc21 [sertraline]				bind to S1R			Zaire Ebola virus (EBOV) entry to target cells (Zaire Ebola virus (EBOV)): reduce the Zaire Ebola virus (EBOV) entry
